Results: patent publication US8383619B2, “Pharmaceutical compounds” (Astex Therapeutics Limited, priority 2008, dated 2013)

Columns and labels:
Assay in all cases: Anti-proliferative assay (Oncodesign)
Format in all cases: cell-based
LB771-HNSCC = LB771-HNSCC (HEAD AND NECK); read-out: IC50 (Concentration of test compound)
In short: (§1)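 Plate cells; 16 h recovery; add compound, 72 h; add 10% (v/v) Alamar Blue, 6 h; read fluorescence 535/590. IC50 (nM), max conc 10,000 nM.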

T24 = conditions: Homo sapiens, T-24; T24 (URINARY BLADDER); read-out: IC50 (Concentration of test compound)
In short: as §1

BB74-MEL = BB74-MEL (SKIN); read-out: IC50 (Concentration of test compound)
In short: as §1

BB49-HNSCC = BB49-HNSCC (HEAD AND NECK); read-out: IC50 (Concentration of test compound)
In short: as §1

U-937 = conditions: Homo sapiens; U-937 (BLOOD); read-out: IC50 (Concentration of test compound)
In short: as §1

FaDu = conditions: Homo sapiens; FaDu (HEAD AND NECK); read-out: IC50 (Concentration of test compound)
In short: as §1

SK-MES-1 = conditions: Homo sapiens; SK-MES-1 (LUNG); read-out: IC50 (Concentration of test compound)
In short: as §1

CCRF-CEM = conditions: Homo sapiens; CCRF-CEM (BLOOD); read-out: IC50 (Concentration of test compound)
In short: as §1

Hs 294T = conditions: Homo sapiens; Hs 294T (SKIN); read-out: IC50 (Concentration of test compound)
In short: as §1

NCI-H520 = conditions: Homo sapiens; NCI-H520 (LUNG); read-out: IC50 (Concentration of test compound)
In short: as §1

CGL-1 = CGL-1 (BRAIN); read-out: IC50 (Concentration of test compound)
In short: as §1

A-375 = conditions: Homo sapiens; A-375 (SKIN); read-out: IC50 (Concentration of test compound)
In short: as §1

Hs 746T = conditions: Homo sapiens, Hs746T; Hs 746T (STOMACH); read-out: IC50 (Concentration of test compound)
In short: as §1

A-427 = conditions: Homo sapiens; A-427 (LUNG); read-out: IC50 (Concentration of test compound)
In short: as §1

FTC-238 = FTC-238 (THYROID); read-out: IC50 (Concentration of test compound)
In short: as §1

BB64-RCC = BB64-RCC (KIDNEY); read-out: IC50 (Concentration of test compound)
In short: as §1

Calu-6 = conditions: Homo sapiens; Calu-6 (LUNG); read-out: IC50 (Concentration of test compound)
In short: as §1

BxPC-3 = conditions: Homo sapiens; BxPC-3 (PANCREAS); read-out: IC50 (Concentration of test compound)
In short: as §1

Caov-3 = conditions: Homo sapiens; Caov-3 (OVARY); read-out: IC50 (Concentration of test compound)
In short: as §1

OCI-AML2 = conditions: Homo sapiens; OCI-AML2 (BLOOD); read-out: IC50 (Concentration of test compound)
In short: as §1

IGROV-1/CDDP = conditions: Homo sapiens; IGROV-1/CDDP (OVARY); read-out: IC50 (Concentration of test compound)
In short: as §1

LB37-NSCLC = LB37-NSCLC (LUNG); read-out: IC50 (Concentration of test compound)
In short: as §1

CGL-3 = CGL-3 (BRAIN); read-out: IC50 (Concentration of test compound)
In short: as §1

LB1319-MEL = LB1319-MEL (SKIN); read-out: IC50 (Concentration of test compound)
In short: as §1

RPMI 8226/Dox40 = conditions: Homo sapiens; RPMI 8226/Dox40 (BLOOD); read-out: IC50 (Concentration of test compound)
In short: as §1

IC50 (T24): 852 nM | IC50 (U-937): 104 nM | IC50 (SK-MES-1): 270 nM | IC50 (CCRF-CEM): 107 nM | IC50 (NCI-H520): 98 nM | IC50 (A-375): 1480 nM | IC50 (Calu-6): 32 nM | IC50 (BxPC-3): 196 nM | IC50 (OCI-AML2): > 10000 nM
Compound: CC(C)c1cc(C(=O)N2Cc3ccc(CN4CCN(C)CC4)cc3C2)c(O)cc1O [(2,4-dihydroxy-5-isopropyl-phenyl)-[5-(4-methyl-piperazin-1-ylmethyl)-1,3-dihydro-isoindol-2-yl]-methanone]
IC50 (LB771-HNSCC): 391 nM | IC50 (BB74-MEL): 162 nM | IC50 (BB49-HNSCC): 146 nM | IC50 (FaDu): 29 nM | IC50 (Hs 294T): 219 nM | IC50 (CGL-1): > 10000 nM | IC50 (Hs 746T): 34 nM | IC50 (A-427): 130 nM | IC50 (FTC-238): 26 nM | IC50 (BB64-RCC): > 10000 nM | IC50 (Caov-3): 94 nM | IC50 (IGROV-1/CDDP): 147 nM | IC50 (LB37-NSCLC): 63 nM | IC50 (CGL-3): 75 nM | IC50 (LB1319-MEL): 35 nM | IC50 (RPMI 8226/Dox40): 213 nM
